In patent US12729181B2, “Compounds, compositions, and methods for modulating calcium ion homeostasis” (The Regents of the University of California, priority 2020, dated 2026):

How the values were obtained:
cardiomyocytes = assay: Ca sparks, Ca waves and contractions in cardiomyocytes; type: cell-based
[1] = Metabolic stability in vivo
tre^tc318 mutant embryos = assay: Compound rescue screen: restoration of persistent heartbeat in tremblor embryos; type: in vivo, Zebrafish; details: for responders at 10 µM / responders at 15 µM / responders at 20 µM: Danio rerio, 48 h; for responders at 10 µM: read-out: Rescue at 10 uM (%); for responders at 15 µM: read-out: Rescue at 15 uM (%); for responders at 20 µM: read-out: Rescue at 20 uM (%); for Rescue at 10 uM (%): 10 uM from 30 hpf
Protocol: Zebrafish of the mutant line tremblor (tre^tc318) were maintained and bred as described previously in the literature. C. f. Langenbacher A D, et al., PNAS, 2005, 102(49), 17699-17704.
Exemplary compounds were screened for their ability to partially or completely restore persistent heartbeat in tre^tc318 embryos. 10 tre^tc318 mutant embryos were placed in each well of a 24-well plate and raised in the presence of individual compounds at various concentrations (5, 10, 15 and 20 μM) from 30 hpf. Cardiac function was analyzed by visual inspection at 2 dpf. The hearts of tre^tc318 embryos manifest a chaotic movement resembling cardiac fibrillation with sporadic contractions. Compounds that elicited persistent coordinated cardiac contractions were validated by rescreening at least once on another 10 tre^tc318 mutant embryos.

VDAC2 = assay: Binding of efsevin to VDAC2
[2] = cardiac function by visual inspection at 2 dpf, 10 embryos per well

Row | SMILES | responders at 10 µM (tre^tc318 mutant embryos) | responders at 15 µM (tre^tc318 mutant embryos) | further results
1 | CCOC(=O)C1=CCN(S(=O)(=O)c2ccc(C)cc2)C1c1ccccc1 (stereo not drawn) [FS001, efsevin, reference compound] | 58% | 80% | effect on Ca overload-induced Ca waves and contractions (cardiomyocytes): inhibits Ca+overload-induced erratic Ca^+ waves and irregular contractions; metabolic stability in vivo [1]: poor metabolic stability in vivo; responders at 20 µM (tre^tc318 mutant embryos): 45%; activity to restore coordinated contractions in tremblor (tre^tc318 mutant embryos; chemical suppressor screen on zebrafish tremblor embryos): potent activity to restore coordinated contractions in tremblor; binding to VDAC2 (VDAC2): bind to VDAC2
2 | CCOC(=O)C1=CCN(S(=O)(=O)c2ccc(C)cc2)C1c1ccc(Br)cc1 (stereo not drawn) [FS066] |  |  | Rescue at 10 uM (%) (tre^tc318 mutant embryos; [2]): 11%
3 | CCOC(=O)C1=CCN(S(=O)(=O)c2ccc(Br)cc2)C1c1cccc(Cl)c1 (stereo not drawn) [FS093] | 0% |  | 
4 | CCOC(=O)C1=CCN(S(=O)(=O)c2ccccc2Cl)C1c1ccc(Cl)cc1 (stereo not drawn) [FS041] | 44% | 30% | responders at 20 µM (tre^tc318 mutant embryos): 20%
5 | CCOC(=O)C1=CCN(S(=O)(=O)c2ccccc2C)C1c1cccc(Br)c1 (stereo not drawn) [FS021] | 10% |  | 
6 | CCOC(=O)C1=CCN(S(=O)(=O)c2ccc([N+](=O)[O-])cc2)C1c1ccc(C)cc1 (stereo not drawn) [FS141] |  | 0% | 
7 | CCOC(=O)C1=CCN(S(=O)(=O)c2ccc(Br)cc2)C1c1ccc(Cl)c(Cl)c1 (stereo not drawn) [FS092] | 0% | 11% | responders at 20 µM (tre^tc318 mutant embryos): 11%
8 | CCOC(=O)C1=CCN(S(=O)(=O)c2ccccc2Cl)C1c1cccc(F)c1 (stereo not drawn) [FS027] | 0% |  | 
9 | CCOC(=O)C1=CCN(S(=O)(=O)c2ccccc2Cl)C1c1ccc(C)cc1 (stereo not drawn) [FS044] | 0% |  | 
10 | CCOC(=O)C1=CCN(S(=O)(=O)c2ccc(Cl)cc2)C1c1ccc(C)cc1 (stereo not drawn) [FS086] |  |  | Rescue at 10 uM (%) (tre^tc318 mutant embryos; [2]): 11%
11 | CCOC(=O)C1=CCN(S(=O)(=O)c2ccc(Br)cc2)C1c1ccc(C)cc1 (stereo not drawn) [FS102] | 0% |  | 
12 | CCOC(=O)C1=CCN(S(=O)(=O)c2ccc(C)cc2)C1c1ccc(CC)cc1 (stereo not drawn) [FS058] | 58% | 80% | responders at 20 µM (tre^tc318 mutant embryos): 45%
13 | CCOC(=O)C1=CCN(S(=O)(=O)c2ccccc2C)C1c1ccccc1 (stereo not drawn) [FS053] | 0% |  | 
14 | CCOC(=O)C1=CCN(S(=O)(=O)c2ccc(C)cc2)C1c1cccs1 (stereo not drawn) [FS147] |  | 60% | 
15 | CCOC(=O)C1=CCN(S(=O)(=O)c2ccccc2Br)C1c1ccc(C)cc1 (stereo not drawn) [FS048] | 0% |  | 
16 | CCOC(=O)C1=CCN(S(=O)(=O)c2ccc(C)cc2)C1c1ccc(Cl)c(Cl)c1 (stereo not drawn) [FS065] | 11% |  | 
17 | CCOC(=O)C1=CCN(S(=O)(=O)c2ccc(F)cc2)C1c1cccc(F)c1 (stereo not drawn) [FS116] |  | 11% | 
18 | CCOC(=O)C1=CCN(S(=O)(=O)c2ccccc2C)C1c1cccc(C)c1 (stereo not drawn) [FS025] | 0% |  | 
19 | CCOC(=O)C1=CCN(S(=O)(=O)c2cccc(Br)c2)C1c1ccc(Br)cc1 (stereo not drawn) [FS137] |  | 0% | 
20 | CCOC(=O)C1=CCN(S(=O)(=O)c2ccc(C)cc2)C1c1ccc(Cl)cc1 (stereo not drawn) [FS063] |  |  | Rescue at 10 uM (%) (tre^tc318 mutant embryos; [2]): 40%
21 | CCOC(=O)C1=CCN(S(=O)(=O)c2ccccc2F)C1c1ccccc1 (stereo not drawn) [FS056] |  |  | Rescue at 10 uM (%) (tre^tc318 mutant embryos; [2]): 20%; Rescue at 15 uM (%) (tre^tc318 mutant embryos; 15 uM from 30 hpf, cardiac function by visual inspection at 2 dpf, 10 embryos per well): 0%; Rescue at 20 uM (%) (tre^tc318 mutant embryos; 20 uM from 30 hpf, cardiac function by visual inspection at 2 dpf, 10 embryos per well): 0%
22 | CCOC(=O)C1=CCN(S(=O)(=O)c2ccccc2C)C1c1cccc(Cl)c1 (stereo not drawn) [FS020] | 0% |  | 
